Molecular target: T1, 5-HT1A receptor (Rattus norvegicus, UniProt P19327)
T1 construct: rat hippocampal membrane homogenate; from tissue; host or cells: rat hippocampus, membrane homogenate
T1 sequence (P19327 1-422): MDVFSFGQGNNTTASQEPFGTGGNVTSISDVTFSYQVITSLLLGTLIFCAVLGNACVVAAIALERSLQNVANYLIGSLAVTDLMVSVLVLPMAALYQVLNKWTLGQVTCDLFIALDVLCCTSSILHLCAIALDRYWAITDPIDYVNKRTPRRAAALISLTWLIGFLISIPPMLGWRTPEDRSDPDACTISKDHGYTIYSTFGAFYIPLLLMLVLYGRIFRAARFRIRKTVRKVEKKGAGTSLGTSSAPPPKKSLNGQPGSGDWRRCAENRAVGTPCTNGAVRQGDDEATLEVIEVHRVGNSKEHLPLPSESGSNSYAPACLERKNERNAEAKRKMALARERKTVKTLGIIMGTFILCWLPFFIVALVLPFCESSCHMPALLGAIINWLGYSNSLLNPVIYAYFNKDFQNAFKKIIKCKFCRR
Assay: 5-HT1A receptor binding activity in rat hippocampal membrane homogenate
Settings: method of Alexander and Wood
Method: The compounds of the invention are tested for 5-HT1A receptor binding activity in rat hippocampal membrane homogenate by the method of B. S. Alexander and M. D. Wood, J Pharm Pharmacol, 1988, 40, 888-891.

- IC50: 20 nM
Structure (SMILES): COc1ccccc1N1CCN(CC(c2ccccn2)C(O)c2ccccc2)CC1 (stereo not shown) [Example 2]

— patent US5346896A, “1-(aryl or heteroaryl)-4[ω-(aryl or heteroaryl)ω-(aryl or heteroaryl)alkylene]piperazines” (John Wyeth & Brother, Limited, priority 1990, dated 1994)
